Experimental data as given in patent US4569926A, “Stimulation of phagocytosis with somatostatin” (Brigham and Women's Hospital, priority 1983, dated 1986).

Columns and labels:
Kupffer cells and RES [1] = assay: colloidal carbon clearance from the blood (phagocytic index K); format: in vivo, rat; conditions: for clearing potency order by change in K caused by 100 μg of treatment (ΔK/100 μg): crude comparison, rank order
Protocol: (§1) All of the experiments were performed in female Spraque-Dawley rats (ESS Laboratories, Lynnfield, Mass.) with an initial body weight of 150-180 g, and with unlimited access to Purina laboratory chow and tap water. Control and experimental groups consisted of 3-4 rats. Each experiment was repeated at least twice and the results were pooled. Linear or cyclic somatostatin (Serono) was injected under mild ether anesthesia at 10, 50, 100 or 250 μg in 0.5 ml of saline into the jugular vein once daily for 4 consecutive days in the dose-response study (FIG. 1). Control animals were injected with the same amount of saline. In the time-response study, 0, 1, 2, 3 or 4 daily doses of somatostatin, 50 μg, were injected i.v. (FIG. 2). In the comparative experiments, somatostatin, 250 μg, i.v., was given as in the first study, and standard doses of zymosan (Sigma 2,500 μg/100 g i.v.; twice, 48 and 24 hr before colloidal carbon) and the reticuloendothelial system (RES) blocker gadolinium chloride (Sigma; 500 μg/100 g i.v.; once, 24 hour prior to india ink) were administered to additional groups of rats (FIG. 3). In all of the experiments, 0.1 ml/100 g of the supernatant of centrifuged (3000 rpm/15 min) colloidal carbon (Wagner's india ink) was injected i.v. under mild ether anesthesia. Blood samples (50 μl ) were obtained with heparinized glass capillaries and by puncture of the retro-orbital venous plexus at 3, 6, 12 and 24 minutes after the administration of carbon. The blood samples were lysed in 2 ml of 0.1% Na2 CO3 solution. After 24 minutes, the rats were killed, and the livers were perfused through the portal vein with 20 ml saline to remove trapped blood. Samples of liver, spleen, lung and kidney were fixed in 10% formalin and subsequently processed for light microscopy. A piece of liver was digested in concentrated mineral acid, and, following organic extraction, the concentration of carbon, as in blood hemolysates, was measured spectrophotometrically at 660 nm using the method of Takahashi and Matsuoka (J. Toxicol. Sci., S., 1 (1980).
The phagocytic index or K value was calculated as described by others (Takahashi and Matsuoka, ibid; Biozzi et al, J. Exp. Pathol., 34, 441 (1953)) to indicate the carbon clearance for the blood. Since it was evident that the effect of treatment was maximal on carbon clearance during the first 6 or 12 minutes, K values were obtained only for this time interval. For statistical evaluation, Student's two-tailed t-test was used.

Kupffer cells and RES [2] = assay: hepatic uptake of colloidal carbon; format: in vivo, rat; conditions: zymosan 2,500 μg/100 g i.v. twice, 48 and 24 hr before carbon; GdCl3 500 μg/100 g i.v. once, 24 hour before (FIG. 3)
Protocol: as §1, with “In all of the experiments, 0.1 ml/100 g of the supernatant of centrifuged (3000 rpm/15 min) colloidal carbon (Wagner's india ink) was injected i.v. under mild ether anesthesia. Blood samples (50 μl ) were obtained with heparinized glass capillaries and by puncture of the retro-orbital venous plexus at 3, 6, 12 and 24 minutes after the administration of carbon. The blood samples were lysed in 2 ml of 0.1% Na2 CO3 solution. After 24 minutes, the rats were killed, and the livers were perfused through the portal vein with 20 ml saline to remove trapped blood. Samples of liver, spleen, lung and kidney were fixed in 10% formalin and subsequently processed for light microscopy.” left out

Kupffer cells = assay: light microscopic examination of liver sections for carbon particles; format: in vivo, rat; conditions: periportal areas, 24 minutes after carbon
Protocol: as §1, with “In all of the experiments, 0.1 ml/100 g of the supernatant of centrifuged (3000 rpm/15 min) colloidal carbon (Wagner's india ink) was injected i.v. under mild ether anesthesia. Blood samples (50 μl ) were obtained with heparinized glass capillaries and by puncture of the retro-orbital venous plexus at 3, 6, 12 and 24 minutes after the administration of carbon. The blood samples were lysed in 2 ml of 0.1% Na2 CO3 solution. After 24 minutes, the rats were killed, and the livers were perfused through the portal vein with 20 ml saline to remove trapped blood. Samples of liver, spleen, lung and kidney were fixed in 10% formalin and subsequently processed for light microscopy.” left out

[3] = in vivo; cited from earlier work
[4] = in vivo; cited from earlier work; remark: listed apart in the source
[5] = pretreatment with exogenous somatostatin; cited from earlier work

Compound	clearing potency order by change in K caused by 100 μg of treatment (ΔK/100 μg) (Kupffer cells and RES [1])	carbon clearance from the blood, comparative experiment (Kupffer cells and RES [1]; zymosan 2,500 μg/100 g i.v. twice, 48 and 24 hr before carbon, GdCl3 500 μg/100 g i.v. once, 24 hour before (FIG. 3))	uptake of the carbon to the liver, comparative experiment (Kupffer cells and RES [2])	colloidal carbon clearance from the blood, dose-response (Kupffer cells and RES [1]; 10 μg i.v. once daily for 4 days (FIG. 1))	colloidal carbon clearance from the blood, dose-response (Kupffer cells and RES [1]; doses of 50, 100 or 250 μg i.v. once daily for 4 days (FIG. 1))	colloidal carbon clearance from the blood (Kupffer cells and RES [1]; female Sprague-Dawley rats, somatostatin i.v. once daily for 4 days vs saline, effect most dramatic during first 6-12 minutes (FIG. 1))	phagocytic index or K value (Kupffer cells and RES [1]; time-response study, 50 μg i.v., three or four doses (one per day) (FIG. 2))	carbon deposition in liver macrophages (light microscopy) (Kupffer cells)	effect on adrenal and lung lesions [3]	effect on experimentally induced pancreatitis [4]	cysteamine-induced duodenal ulcer [5]	gastric acid output [5]
[Cl][Gd]([Cl])[Cl] [GdCl3, gadolinium chloride]	somatostatin >zymosan >GdCl3	inhibited	inhibited									
somatostatin	somatostatin >zymosan >GdCl3			less effective than the other doses	very similar results	markedly accelerated	significantly enhanced	caused numerous macrophages to take up carbons	beneficial effect	beneficial effect	prevents	minimal inhibition
